Assay results from patent publication US20150105252A1, “SUBSTITUTED PYRAZOLES AS HERBICIDES” (E I DU PONT DE NEMOURS AND COMPANY, priority 2013, published 2015).

Columns and labels:
Assay in all cases: Test F preemergence
pigweed, palmer = format: in vivo, Amaranthus palmeri
From the text: (§1) Seeds of plant species selected from corn (Zea mays), soybean (Glycine max), velvetleaf (Abutilon theophrasti), lambsquarters (Chenopodium album), wild poinsettia (Euphorbia heterophylla), pigweed, palmer (palmer pigweed, Amaranthus palmeri), common waterhemp (Amaranthus rudis), surinam grass (Brachiaria decumbens), large crabgrass (Digitaria sanguinalis), crabgrass, Brazil (Brazilian crabgrass, Digitaria horizontalis), fall panicum (Panicum dichotomiflorum), giant foxtail (Setaria faberii), green foxtail (Setaria viridis), goosegrass (Eleusine indica), johnsongrass (Sorghum halepense), common ragweed (Ambrosia elation), barnyardgrass (Echinochloa crus-galli), southern sandbur (Cenchrus echinatus), arrowleaf sida (Sida rhombifolia), Italian ryegrass (Lolium multiflorum), dayflower, VA (Virginia (VA) dayflower, Commelina virginica), field bindweed (Convolvulus arvensis), cocklebur (common cocklebur, Xanthium strumarium), morningglory (Ipomoea coccinea), nightshade (eastern black nightshade, Solanum ptycanthum), kochia (Kochia scoparia), yellow nutsedge (Cyperus esculentus), and hairy beggarticks (Bidens pilosa), were planted into a silt loam soil and treated preemergence with test chemicals formulated in a non-phytotoxic solvent mixture which included a surfactant.
(§2) At the same time, plants from these crop and weed species and also horseweed (Canada horseweed, Conyza canadensis), smartweed (ladysthumb smartweed, Polygonum persicaria), waterhemp_RES1, (ALS & Triazine resistant common waterhemp, Amaranthus rudis), and waterhemp_RES2, (ALS & HPPD resistant common waterhemp, Amaranthus rudis) were treated with postemergence applications of test chemicals formulated in the same manner. Plants ranged in height from 2 to 18 cm for postemergence treatments (1- to 4-leaf stage). Treated plants and controls were maintained in a greenhouse for 14 to 21 days, after which time all species were compared to controls and visually evaluated. Plant response ratings, summarized in Table F, are based on a scale of 0 to 100 where 0 is no effect and 100 is complete control. A dash (-) response means no test result.

common ragweed = format: in vivo, Ambrosia elation
From the text: as §1, §2

kochia = format: in vivo, Kochia scoparia
From the text: as §1, §2

soybean = format: in vivo, Glycine max
From the text: as §1, §2

southern sandbur = format: in vivo, Cenchrus echinatus
From the text: as §1, §2

[1] = Preemergence, 31 g ai/ha, scale 0 to 100
[2] = Preemergence, 62 g ai/ha, scale 0 to 100
[3] = Preemergence, 125 g ai/ha, scale 0 to 100
[4] = preemergence, 8 g ai/ha, scale 0 to 100, 100 is complete control
[5] = preemergence, 16 g ai/ha, scale 0 to 100, 100 is complete control
[6] = Preemergence, 16 g ai/ha, scale 0 to 100
[7] = Preemergence, 250 g ai/ha, scale 0 to 100

Compound | Plant response rating, Pigweed, Palmer (pigweed, palmer; [2]) | Plant response rating, Pigweed, Palmer (pigweed, palmer; [3]) | Plant response rating, Pigweed, Palmer (pigweed, palmer; [4]) | Plant response rating, Pigweed, Palmer (pigweed, palmer; [5]) | Plant response rating, Common Ragweed (common ragweed; [2]) | Plant response rating, Common Ragweed (common ragweed; [3]) | Plant response rating, Common Ragweed (common ragweed; [4]) | Plant response rating, Common Ragweed (common ragweed; [5]) | Plant response rating, Kochia (kochia; [2]) | Plant response rating, Kochia (kochia; [3]) | Plant response rating, Kochia (kochia; [4]) | Plant response rating, Soybean (soybean; [2]) | Plant response rating, Soybean (soybean; [3]) | Plant response rating, Soybean (soybean; [4]) | Plant response rating, Soybean (soybean; [5]) | Plant response rating, Southern Sandbur (southern sandbur; [2]) | Plant response rating, Southern Sandbur (southern sandbur; [3]) | Plant response rating, Southern Sandbur (southern sandbur; [4]) | Plant response rating, Southern Sandbur (southern sandbur; [5]) | Plant response rating, Common Ragweed (common ragweed; [6]) | other results
CCOc1cc(C(=O)NCC(F)(F)F)nn1Cc1ccnc(C(F)(F)F)c1 [Compound 104] | 50 | 100 | 0 | 0 | 100 | 100 | 0 | 0 | 100 | 100 | 0 | 70 | 90 | 0 | 0 | 80 | 90 | 0 | 0 |  | Plant response rating, Pigweed, Palmer (pigweed, palmer; [1]): 50; Plant response rating, Common Ragweed (common ragweed; [1]): 95; Plant response rating, Kochia (kochia; [1]): 25; Plant response rating, Soybean (soybean; [1]): 25; Plant response rating, Southern Sandbur (southern sandbur; [1]): 20
CCNC(=O)c1cc(CCCl)n(Cc2ccnc(C(F)(F)F)c2)n1 [Compound 179] | 35 | 100 | 0 |  | 65 | 80 | 0 |  | 35 | 90 | 0 | 65 | 70 | 0 |  | 0 | 35 | 0 |  |  | Plant response rating, Pigweed, Palmer (pigweed, palmer; [1]): 0; Plant response rating, Common Ragweed (common ragweed; [1]): 40; Plant response rating, Kochia (kochia; [1]): 30; Plant response rating, Soybean (soybean; [1]): 35; Plant response rating, Southern Sandbur (southern sandbur; [1]): 0
CCNC(=O)c1cc(CC)n(Cc2ccnc(C(F)(F)F)c2)n1 [Compound 196] | 100 | 100 | 0 | 0 | 70 | 90 | 0 | 30 | 85 | 100 | 15 | 50 | 50 | 0 | 0 | 10 | 40 | 0 | 0 | 65 | Plant response rating, Kochia (kochia; [5]): 40; Plant response rating, Soybean (soybean; [6]): 20
Cc1cc(C(=O)NC(C)C)nn1Cc1ccnc(C(F)(F)F)c1 [Compound 197] | 95 | 90 | 10 | 35 | 40 | 80 | 0 | 0 | 75 | 98 | 0 | 20 | 65 | 0 | 5 | 0 | 15 | 0 | 0 | 35 | Plant response rating, Kochia (kochia; [5]): 0; Plant response rating, Soybean (soybean; [6]): 10
CCc1cc(C(=O)NC2CC2)nn1Cc1ccnc(OCC(F)(F)F)c1 [Compound 200] | 0 | 95 |  | 0 | 0 | 5 |  | 0 | 70 | 90 |  | 0 | 65 |  | 0 | 0 | 15 |  | 0 | 0 | Plant response rating, Pigweed, Palmer (pigweed, palmer; [7]): 85; Plant response rating, Common Ragweed (common ragweed; [7]): 30; Plant response rating, Kochia (kochia; [7]): 100; Plant response rating, Kochia (kochia; [5]): 20; Plant response rating, Soybean (soybean; [7]): 75; Plant response rating, Soybean (soybean; [6]): 0; Plant response rating, Southern Sandbur (southern sandbur; [7]): 60
